Key:
trans-dermal wounds = assay: wound healing of trans-dermal wounds in mice, topical application; format: in vivo; details: for % healing at day 1 post treatment / % healing at day 2 post treatment / % healing at day 3 post treatment / % healing at day 4 post treatment: topical 0.5 mg/ml (5 mg/kg), 1 application/day, 5 mm punch wounds; for speed of wound healing compared with Vehicle / 156A protein: topical 0.5 mg/ml, time course over 4 days
Description: The vehicle (Batch A) was administered by topical application at a standardized volume of 10 ml/kg for all applications. The peptides of the invention, the protein 156A or the peptides 2, 6 and 9 were administered by topical application at the concentration of 0.5 mg/ml in the vehicle. The protocols of treatment were as it follows: • Group 1: (Batch A, Vehicle): 1 topical application 10 minutes after wounding • Group 2: (Peptide 7, 0.5 mg/ml): 1 topical application 10 minutes after wounding • Group 3: (Peptide 10, 0.5 mg/ml): 1 topical application 10 minutes after wounding • Group 4: (Peptide 11, 0.5 mg/ml): 1 topical application 10 minutes after wounding • Group 5: (Peptide 7B, 0.5 mg/ml): 1 topical application 10 minutes after wounding. • Group 6: (Peptide 2, 0.5 mg/ml): 1 topical application 10 minutes after wounding. • Group 7: (Peptide 6, 0.5 mg/ml): 1 topical application 10 minutes after wounding. • Group 8: (Peptide 9, 0.5 mg/ml): 1 topical application 10 minutes after wounding. • Group 9: (Protein 156A, 0.5 mg/mL): 1 topical application 10 minutes after wounding.
Healthy female BALBC Swiss mice were anesthetized by IP injection of Ketamine-Xylazine (80 mg/kg-12 mg/kg; Ref. K-113, Sigma, France). Two trans-dermal wounds, each of 5 mm in width and about 1 to 2 mm in depth were realized in the right and the left flanks of each mouse using 5 mm punch.
At D1, and 10 min post-injury of the animals, the mice were randomized into 9 groups of 3 mice each.
All treatments were realized by topical application at the frequency of 1 topical application/day, for 4 days. Animals of group 1 were treated with the vehicle solution (Batch A). Animals of groups 2 to 9 were treated with the indicated peptide or with the 156A protein at a dose of 5 mg/kg.

[1] = system: human microvascular endothelial cells (HMEC); assay: in vitro angiogenesis assay (Matrigel, endothelial tube formation); format: cell-based; details: for in vitro angiogenesis-inducing activity: 400 μg/ml final concentration, images at 6 h post incubation; for classification of in vitro angiogenesis inducing activity: 400 μg/ml, rank order among peptides
Description: Angiogenesis of human microvascular endothelial cells (HMEC) was induced in vitro using a Matrigel assay described by Grant et α1 (1989, Cell, 1989; 58:933). This method is based on the differentiation of endothelial cells to form capillary structures on a Matrigel Matrix. Matrigel is prepared the Engelbreth-Holm-Swarm (EHS) mouse tumor, which represents a complex mixture of basement membrane proteins including type IV collagen, entactin, proteo-heparan sulfate and other growth factors.
Briefly, 250 μl of Matrigel were transferred to each well of a 24-well culture plate and incubated at 37° C. for 30 min to allow for the matrix solution to solidify. HMEC grown in complete growth medium EGM-2MV were harvested by trypsin, suspended in the same growth medium and 500 μl containing 70 000 cells were added on top of the solidified Matrigel in each well and in the presence or absence of protein. Cells were maintained in a humidified atmosphere air containing 5% CO2 at 37° C. for 18-24 hrs. Endothelial tube formation was observed and photographed under an inverted light microscope.
The designed small peptides 7 (SEQ ID NO: 1), 10 (SEQ ID NO: 3), and 11 (SEQ ID NO: 4) were synthesized and tested for their in vitro angiogenesis-inducing activities (as described in Methods here above).
The results of the in vitro angiogenesis assay were presented in FIG. 1, using HMEC and 400 μg/ml final concentration of each peptide. Images were taken at 6 h post incubation.

VEGFA protein = VEGFA protein by sandwich ELISA in HMEC culture medium; format: cell-based, human
Description: Serum-deprived HMEC were incubated with different concentrations of peptide 7 or peptide 10 or vehicle […]. After 3 washes with ice-cold PBS, cells were suspended with the protein extraction buffer (PEB) (20 mM Tris-HCl pH 7.5, 150 mM NaCl, 1 mM EDTA, 1 mM EGTA, 1% Triton, 25 mM sodium pyrophosphate, 1 mM β-glycero-phosphate, 1 mM Na3Vo4, 1 μg/ml leupeptine, 1 μM PMSF). The protein content was measured by Bradford. VEGFA concentration in the culture medium or in the extracts was determined by human VEGFA Sandwich ELISA kit (Cell Signaling technology) according to the manufacturer's instructions.

VEGFA mRNA = assay: VEGFA expression by real time quantitative PCR in HMEC; format: cell-based, human; details: 400 μg/ml, 6 h, QPCR
Description: After exposure to the indicated concentrations of peptide 7 or peptide 10 issued from the recombinant protein GS-156A or vehicle for 24 h, HMEC (5×10^5 cells/ml), total mRNA were isolated using NucleoSpin RNA II kit. RNA yields and purity were assessed by spectrophotometric analysis. The real-time RT-PCR was performed as previously described (Voghel et al., 2008). […] The real-time PCR reactions were carried out with the DNA Engine OPTICON 2 continuous fluorescence detector (MJ Research, Waltham, Mass., U.S.A.). The results were quantified using the equation: CopyTF:CopyGAPDH=2C(t)GAPDH−C(t)TF. All PCR products were analyzed by electrophoresis on a 1.5% agarose gel, visualized with ethidium bromide, and analyzed using the Genesnap 6.00.26 software (Syngene, Cambridge, U.K.). […]
The influence of peptide 7 and peptide 10 on VEGFA expression was investigated. For that, HMEC were incubated with either peptide 7 (400 μg/ml final concentration), or peptide 10 (400 μg/ml final concentration) for 6 h, followed by measuring the expression of VEGFA by real time quantitative PCR (QPCR).

[2] = system: trans-dermal wounds in diabetic mice; assay: wound healing in diabetic mice, subcutaneous injection beneath the wound; format: in vivo, ob/ob C57BL6/J mice; details: 2 mg/ml or 5 mg/ml, sb injection 200 μl/day for 4 days, 8 mm punch wounds
Description: Diabetic female ob/ob C57BL6/J mice were anesthetized by IP injection of Ketamine-Xylazine (80 mg/kg-12 mg/kg; Ref. K-113, Sigma, France). Two trans-dermal wounds, each of 8 mm in width and about 1 to 2 mm in depth were realized in the right flank of each mouse using 8 mm punch.
At D1, and 10 min post-injury of the animals, the mice were randomized into 3 groups of 5 mice each.
All treatments were realized by subcutaneous (sb) injections beneath the wounded area at the frequency of 1 sb injection/day, for 4 days. Animals of group 1 were injected with the vehicle solution (Batch A; 200 μl/injection, beneath the wounded area). Animals of groups 2 were sb injected with P7 solution in vehicle (2 mg of P7/ml of vehicle) (200 μl/injection; 16 mg/kg; beneath the wounded area). Animals of groups 3 were sb injected with P7 solution in vehicle (5 mg of P7/ml of vehicle) (200 μl/injection; 40 mg/kg; beneath the wounded area).

Protein Kinase B (Akt) = assay: activation status of protein kinase B (pAkt) by western-blot in HMEC; format: cell-based, human; details: 400 μg/ml, 10 min and 30 min post incubation, immunoblot
Description: The activation status of pAkt was determined by western-blot using an anti-phosphoserine 473 pAkt antibody, and anti-GAPDH mAb as internal standard.
The status of Akt in the HMEC following incubation with either peptide 7 or peptide 10 was investigated.

MAPK (Erk1 and 2) = assay: activation status of MAPK (pErk1/2) by western-blot in HMEC; format: cell-based, human; details: immunoblot pErk1/2
Description: The activation status of MAPK was determined by western-blot using an anti-activated MAPK (pErk1/2) antibody, and anti-GAPDH mAb as internal standard.
We have also investigated the status of the mitogen activated protein kinase (MAPK), as it is well established that it represents another cascade of intracellular signaling could be implicated in the regulation of VEGF expression.

Row | Substance | % healing at day 1 post treatment (trans-dermal wounds) [%] | % healing at day 2 post treatment (trans-dermal wounds) [%] | % healing at day 3 post treatment (trans-dermal wounds) [%] | % healing at day 4 post treatment (trans-dermal wounds) [%] | speed of wound healing compared with Vehicle / 156A protein (trans-dermal wounds) | in vitro angiogenesis-inducing activity [1] | classification of in vitro angiogenesis inducing activity [1] | increases of VEGFA-biosynthesis and excretion (VEGFA protein; 400 μg/ml) | increase in VEGF protein within the culture medium (peak) (VEGFA protein; 400 μg/ml of peptide, p<0.001) | VEGFA mRNA higher than Control (no peptide) (VEGFA mRNA) | healing of the wounds in diabetic mice compared to control [2] | level of activated Akt relative to Control (Protein Kinase B (Akt)) | level of activation of Erk1 and 2 (MAPK) relative to Control (MAPK (Erk1 and 2))
1 | ELDLQASL [Peptide 7B, fragment of the protein 156A, chemically synthesized] | 33.2 | 56.9 | 63.7 | 76.6 | healed faster than the wounds treated with Vehicle or with the 156A protein |  |  |  |  |  |  |  | 
2 | FQRLLKQ [Peptide 9, comparative fragment of the 156A protein without enhanced efficiency] |  |  |  |  | healed slower than the wounds treated with Vehicle |  |  |  |  |  |  |  | 
3 | QSQKVPRQVQS [Peptide 11, fragment of the protein 156A, chemically synthesized] | 41.9 | 52.1 | 58.4 | 64.4 | healed faster than the wounds treated with Vehicle or with the 156A protein | strong in vitro angiogenesis-inducing activity | peptide 7>peptide 10>peptide 11 |  |  |  |  |  | 
4 | RLNRSDSDSSTLAKK [Peptide 2, comparative fragment of the 156A protein without enhanced efficiency] |  |  |  |  | healed slower than the wounds treated with Vehicle |  |  |  |  |  |  |  | 
5 | RSLRVKRTVCQSVLR [Peptide 6, comparative fragment of the 156A protein without enhanced efficiency] |  |  |  |  | healed slower than the wounds treated with Vehicle |  |  |  |  |  |  |  | 
6 | TQECPVRTSLDRELDLQASL [Peptide 7, fragment of the protein 156A, chemically synthesized] | 52.8 | 60.1 | 65.6 | 82.9 | healed faster than the wounds treated with Vehicle or with the 156A protein | strong in vitro angiogenesis-inducing activity | peptide 7>peptide 10>peptide 11 | about 2 folds | about 97% | about 170% | strong healing of the wounds | much higher level of activated Akt | not significant variations in level of activation of Erk1 and 2
7 | VSKDVCRL [Peptide 10, fragment of the protein 156A, chemically synthesized] | 42.8 | 61.3 | 65.6 | 78.9 | healed faster than the wounds treated with Vehicle or with the 156A protein | strong in vitro angiogenesis-inducing activity | peptide 7>peptide 10>peptide 11 |  |  | about 60% |  | much higher level of activated Akt | not significant variations in level of activation of Erk1 and 2
